According to PMC9963121, “Development of Combretastatin A-4 Analogues as Potential Anticancer Agents with Improved Aqueous Solubility” (Molecules, 2023):
Counter-ions that a name gives are not always drawn.

Tested on: HCT-116 colorectal cancer cell
Assay: MTT cell growth inhibition assay, HCT-116 colorectal cancer cells
Type: cell-based, human
Conditions: Homo sapiens, HCT-116; MTT; mean ± SD of three experiments
Description: (§1) Initially, we designed and synthesised seven compounds—9a and 12a1–12a6—and evaluated the anticancer activity and aqueous solubility. We evaluated the cytotoxic effects of these stilbene nitrile analogues against a panel of four human cancer cell lines (HCT-116, BEL-7402, MCF-7 and AGS) and two human non-cancerous normal cell lines (L-02 and MCF-10A), using CA-4 as a control. The compounds were screened for aqueous solubility in 0.01 M PBS using a high throughput UV method. […] It is possible that the size of the nitrogen heterocycle had little effect on the activity of these compounds. […] The aqueous solubility of all the compounds 12a1–12a6 was higher than that of 9a, particularly that of 12a1 and 12a2 containing piperazine rings. […] Of the six compounds with improved aqueous solubility, 12a1 had the best activity.
(§2) All human cell lines were used in this study. AGS gastric cancer cell, BEL-7402 liver cancer cell, HCT-116 colorectal cancer cell, L-02 normal liver cell, MCF-7 breast cancer cell, and MCF-10A normal breast cell were initially purchased from American Type Culture Collection (ATCC, Manassas, VA, USA). RPMI-1640 media, DMEM and FBS, were provided by Gibco Company. The cells were maintained in DMEM or RPMI-1640, supplemented with 10% FBS, 100 IU/mL penicillin and […] streptomycin, and at 37 °C in a humidified atmosphere containing 5% CO2.
(§3) The experiment was carried out according to the method of reference.
`COc1cc(/C(C#N)=C/c2ccc(NC(=O)CN3CCN[C@@H](C)C3)cc2)cc(OC)c1OC` [compound 17] showed an IC50 of 10.3 ± 1.07 µM. For `COc1cc(/C(C#N)=C/c2ccc(NC(=O)CN3CCNC(C)C3)cc2)cc(OC)c1OC.Cl` (centres unmarked) [compound 18], the IC50 was 9.73 ± 0.9 µM. In the case of `COc1cc(/C(C#N)=C/c2ccc(NC(=O)CN3CCNC[C@@H]3C)cc2)cc(OC)c1OC.Cl` [compound 19], the IC50 is reported as 8.18 ± 0.67 µM. Work on `COc1cc(/C(C#N)=C/c2ccc(NC(=O)CN3CCNC[C@H]3C)cc2)cc(OC)c1OC.Cl` [compound 20] yielded an IC50 of 10.5 ± 2.32 µM.

Tested on: AGS gastric cancer cell
Assay: MTT cell growth inhibition assay, AGS gastric cancer cells
Type: cell-based
Conditions: Homo sapiens, mean ± SD of three experiments
Description: as §1, §2, §3
In the case of `COc1cc(/C(C#N)=C/c2ccc(NC(=O)CN3CCN[C@@H](C)C3)cc2)cc(OC)c1OC` [compound 17], the IC50 is reported as 22.6 ± 1.45 µM. For `COc1cc(/C(C#N)=C/c2ccc(NC(=O)CN3CCNC(C)C3)cc2)cc(OC)c1OC.Cl` (centres unmarked) [compound 18], the IC50 was 11.5 ± 2.32 µM. `COc1cc(/C(C#N)=C/c2ccc(NC(=O)CN3CCNC[C@@H]3C)cc2)cc(OC)c1OC.Cl` [compound 19] showed an IC50 of 5.58 ± 2.33 µM. In the case of `COc1cc(/C(C#N)=C/c2ccc(NC(=O)CN3CCNC[C@H]3C)cc2)cc(OC)c1OC.Cl` [compound 20], the IC50 is reported as 15.2 ± 0.76 µM.

Tested on: BEL-7402 liver cancer cell
Assay: MTT cell growth inhibition assay, BEL-7402 liver cancer cells
Type: cell-based
Conditions: Homo sapiens, mean ± SD of three experiments, read-out: IC50 BEL-7402 Hepatoma Cells
Description: as §1, §2, §3
Molecule `COc1cc(/C(C#N)=C/c2ccc(NC(=O)CN3CCN[C@@H](C)C3)cc2)cc(OC)c1OC` [compound 17] has an IC50 of 15 ± 2.32 µM. For `COc1cc(/C(C#N)=C/c2ccc(NC(=O)CN3CCNC(C)C3)cc2)cc(OC)c1OC.Cl` (centres unmarked) [compound 18], the IC50 was 4.16 ± 0.97 µM. With `COc1cc(/C(C#N)=C/c2ccc(NC(=O)CN3CCNC[C@@H]3C)cc2)cc(OC)c1OC.Cl` [compound 19] the IC50 was 4.72 ± 0.99 µM. For `COc1cc(/C(C#N)=C/c2ccc(NC(=O)CN3CCNC[C@H]3C)cc2)cc(OC)c1OC.Cl` [compound 20], the IC50 was 6.53 ± 1.67 µM.

Tested on: MCF-7 breast cancer cell
Assay: MTT cell growth inhibition assay, MCF-7 breast cancer cells
Type: cell-based
Conditions: Homo sapiens, MCF7, mean ± SD of three experiments
Description: as §1, §2, §3
For `COc1cc(/C(C#N)=C/c2ccc(NC(=O)CN3CCN[C@@H](C)C3)cc2)cc(OC)c1OC` [compound 17], the IC50 was 15.6 ± 1.87 µM. `COc1cc(/C(C#N)=C/c2ccc(NC(=O)CN3CCNC(C)C3)cc2)cc(OC)c1OC.Cl` (centres unmarked) [compound 18] showed an IC50 of 12.8 ± 2.96 µM. With `COc1cc(/C(C#N)=C/c2ccc(NC(=O)CN3CCNC[C@@H]3C)cc2)cc(OC)c1OC.Cl` [compound 19] the IC50 was 15.4 ± 1.88 µM. Work on `COc1cc(/C(C#N)=C/c2ccc(NC(=O)CN3CCNC[C@H]3C)cc2)cc(OC)c1OC.Cl` [compound 20] yielded an IC50 of 17.3 ± 2.31 µM.

Tested on: not given
Assay: not given
Conditions: not given
`COc1cc(/C(C#N)=C/c2ccc(NC(=O)CN3CCN(CCOCCO)CC3)cc2)cc(OC)c1OC` (as salt: hydrochloride) [compound 16] gave a melting point of 240 to 243 °C. In the case of `COc1cc(/C(C#N)=C/c2ccc(NC(=O)CN3CCN[C@@H](C)C3)cc2)cc(OC)c1OC` (as salt: hydrochloride) [compound 17], the melting point is reported as 196 to 200 °C. In the case of `COc1cc(/C(C#N)=C/c2ccc(NC(=O)CN3CCNC[C@@H]3C)cc2)cc(OC)c1OC.Cl` [compound 19], the melting point is reported as 200 to 202 °C. In the case of `COc1cc(/C(C#N)=C/c2ccc(NC(=O)CN3CCNC[C@H]3C)cc2)cc(OC)c1OC.Cl` [compound 20], the melting point is reported as 200 to 202 °C.

Tested on: L-02 normal liver cell
Assay: MTT cell growth inhibition assay, L-02 normal liver cells
Type: cell-based
Conditions: Homo sapiens, mean ± SD of three experiments
Description: as §1, §2, §3
`COc1cc(/C(C#N)=C/c2ccc(NC(=O)CN3CCN[C@@H](C)C3)cc2)cc(OC)c1OC` [compound 17] gave an IC50 of 28.2 ± 5.16 µM. With `COc1cc(/C(C#N)=C/c2ccc(NC(=O)CN3CCNC(C)C3)cc2)cc(OC)c1OC.Cl` (centres unmarked) [compound 18] the IC50 was 28.4 ± 4.52 µM. Molecule `COc1cc(/C(C#N)=C/c2ccc(NC(=O)CN3CCNC[C@@H]3C)cc2)cc(OC)c1OC.Cl` [compound 19] has an IC50 of 23 ± 2.05 µM. In the case of `COc1cc(/C(C#N)=C/c2ccc(NC(=O)CN3CCNC[C@H]3C)cc2)cc(OC)c1OC.Cl` [compound 20], the IC50 is reported as 25 ± 2.94 µM.

Tested on: MCF-10A normal breast cell
Assay: MTT cell growth inhibition assay, MCF-10A normal breast cells
Type: cell-based
Conditions: Homo sapiens, mean ± SD of three experiments, read-out: IC50 MCF-10A Normal Breast Epithelial Cells
Description: as §1, §2, §3
For `COc1cc(/C(C#N)=C/c2ccc(NC(=O)CN3CCN[C@@H](C)C3)cc2)cc(OC)c1OC` [compound 17], the IC50 was 17.4 ± 3.56 µM. Work on `COc1cc(/C(C#N)=C/c2ccc(NC(=O)CN3CCNC(C)C3)cc2)cc(OC)c1OC.Cl` (centres unmarked) [compound 18] yielded an IC50 of 14.1 ± 3.71 µM. Work on `COc1cc(/C(C#N)=C/c2ccc(NC(=O)CN3CCNC[C@@H]3C)cc2)cc(OC)c1OC.Cl` [compound 19] yielded an IC50 of 16.3 ± 2.14 µM. In the case of `COc1cc(/C(C#N)=C/c2ccc(NC(=O)CN3CCNC[C@H]3C)cc2)cc(OC)c1OC.Cl` [compound 20], the IC50 is reported as 17.8 ± 2.78 µM.

Tested on: not listed separately
Assay: Aqueous solubility in 0.01 M PBS, high throughput UV method
Type: physicochemical
Conditions: aqueous phosphate buffer, aqueous buffer; sodium phosphate buffer 0.01 M, pH 7.4, 22 ± 2 °C; mean ± SD
Description: as §1
The aqueous solubility was determined as a previously reported procedure. Put simply, a certain amount of powdered compound was placed in a 2 mL centrifuge tube and mixed with an appropriate volume of aqueous phosphate buffer (10 mM, pH 7.4) to make the whole system supersaturated. The mixtures were sonicated (KQ5200DE numerical control ultrasonic cleaner, Kunshan Ultrasonic Instrument Co., Ltd., SuZhou, China) for 20 min. After sonication, the mixture was allowed to equilibrate at RT (22 ± 2 °C) for 1.5 h with vortex shaking (1200 rpm). Then centrifuged at 3000 rpm for 15 min (1-14k, sigma, Darmstadt, Germany), the supernatant was filtered with a 0.22 µM filter membrane. And then, take 150 µL of filtrate and add it to 96-well UV plate with triplicate. Draw 150 μL of blank solution was added into plate as blank control. The 96-well UV plate prepared above was read on a Synergy HTX Multifunctional Microplate Reader (BioTek, Vermont, USA) at 294 nm. The absorbance of the sample was corrected according to the UV response of the sample and blank solution, and the corrected UV response values were used for solubility calculations by bringing into the standard curve of the compound. […]
1.5. Solubility Assessment
The aqueous solubility was determined as previously reported using the high throughput solubility screens procedure published by Bruno Bard et al [9. 10]. Put simply, a certain amount of powdered compound was placed in a 2 ml centrifuge tube and mixed with an appropriate volume of aqueous phosphate buffer (0.01 M, pH 7.4) to make the whole system supersaturated. The mixtures were sonicated (KQ5200DE numerical control ultrasonic cleaner, Kunshan Ultrasonic Instrument Co., Ltd., China) for 20 min. After sonication, the mixture was allowed to equilibrate at room temperature (22 ± 2°C) for 1.5 h with vortex shaking (1200 rpm). Then the centrifuge tube was put into the centrifuge (1-14k, sigma, Germany), centrifuged with 3000 rpm for 15 minutes, 0.22 µM filter membrane filtration supernatant, then take 150 µl filtrate and add it to 96-well UV plate, with three well for each compound. Draw 150 μL blank solution were added into 96 well-plate as blank control. The 96-well UV […]
plate prepared above was read on a SynergyHTX Multifunctional microplate reader (BioTek, USA) at 338 nm (compounds 12a-12d and 15-20) or 370 nm (compounds 9a-d). The absorbance of the sample was corrected according to the UV response of the sample and blank solution, and the corrected UV responses value were used for solubility calculations by bring into the standard curve of the compound. […]
`COc1cc(/C(C#N)=C/c2ccc(NC(=O)CN3CCN[C@@H](C)C3)cc2)cc(OC)c1OC` [compound 17] gave a solubility thermodynamic at 1.5 h of 504 ± 117 µg/mL. Molecule `COc1cc(/C(C#N)=C/c2ccc(NC(=O)CN3CCNC(C)C3)cc2)cc(OC)c1OC.Cl` (centres unmarked) [compound 18] has a solubility thermodynamic at 1.5 h of 1050 ± 67.3 µg/mL. Molecule `COc1cc(/C(C#N)=C/c2ccc(NC(=O)CN3CCNC[C@@H]3C)cc2)cc(OC)c1OC.Cl` [compound 19] has a solubility thermodynamic at 1.5 h of 79.5 ± 11.1 µg/mL. For `COc1cc(/C(C#N)=C/c2ccc(NC(=O)CN3CCNC[C@H]3C)cc2)cc(OC)c1OC.Cl` [compound 20], the solubility thermodynamic at 1.5 h was 111 ± 12.3 µg/mL.
